Entries after “also recorded” stand apart in the source; their conditions may differ.
What was measured:
β-catenin = test: Western blotting of β-catenin protein in HEK293 cells and stable lines RBC, CAT, RmBC; type: cell-based, human; conditions: for β-catenin stability / degradation, ligand applied alone: HEK293 with β-catenin and RXRα, FIG. 4B
Experimental: (§1) (A) Western blotting analysis of HEK293 cells transfected with a combination of expression vectors for LacZ (2 μg), V5-tagged β-catenin(4 μg), and Flag-tagged RXRα (2 μg) as indicated below the gels. […] RXRα protein was measured using an HRP-conjugated mouse monoclonal antibody against the Flag tag. (B) Western blotting analysis of stable cell line RBC that overexpresses both β-catenin and RXRα. […] (C) Western blotting analysis of stable cell line CAT that overexpresses only β-catenin. […] Endogenous and overexpressed β-catenin were detected using a rabbit polyclonal antibody as indicated by “Total” whereas overexpressed β-catenin was analyzed using a mouse monoclonal antibody against the V5 tag. Endogenous and overexpressed RXRα were detected by a rabbit polyclonal antibody against RXRα, whereas overexpressed RXRα was determined by an HRP-conjugated mouse monoclonal antibody against the Flag tag. (D) Western blotting analysis of HEK293 cells transfected with a fixed amount of β-catenin (4 μg) plus an increasing amount of RXRα as indicated at the top. […] (E) Western blotting analysis of HEK293, CV-1, and Hela cells transfected with 2 μg of RXRα and 4 μg of wild type or mutant β-catenin. α. […] (F) Northern blotting analysis of RBC cells using β-catenin as a probe.
(§2) FIG. 4 Receptor and ligand specificity in degradation of β-catenin by retinoid receptors. HEK293 cells transfected with expression vectors for β-catenin (4 μg) and RXRs (2 μg) or RARs (2 μg) and treated with ligands at concentrations indicated at the top of each gel. Protein levels were detected by Western blotting as shown in this figure. β-catenin and RARs were detected by HRP-conjugated antibodies against their V5 tag. RXRs were detected by HRP-conjugated antibodies against their Flag tag. […] In this experiment, the amount of expression vectors for RXRα and RARs used in transfection was 1 μg.
(§3) HEK293 cells were seeded at a density of […] per dish were seeded into 100-mm dishes and cultured overnight in DMEM containing 10% FBS. Cells were transfected with 1-4 μg of various cDNA or parental expression vectors (8 μg of DNA in total) using Lipofectamine®. Five hours after transfection, cells were fed with fresh culture media DMEM containing 10% charcoal-treated FBS with vehicle DMSO or retinoids prepared in DMSO. After a given time of treatment, cells were harvested and lysed in a buffer containing 1% Nonidet® P-40, 30 mM Tris-HCl (pH7.4), 0.5 mM EDTA (pH 8.0), 150 mM NaCl, 10% glycerol, 1 mM sodium orthovanadate, 40 mM NaF, 0.5 mM phenylmethylsulfonyl fluoride (PMSF) and a cocktail of protease inhibitors (Merck).
(§4) Total cell lysates were homogenized by passing through a QIAshredder® (Qiagen) and cleared from insoluble materials by centriftigation at 12,000 g. Protein concentration was determined using a Bradford total protein assay kit (Bio-Rad). Total cell lysates were electrophoresed using a 4-12% SDS-PAGE gradient gel and transferred to either nitrocellulose or PVDF filter membranes. The membranes were blocked with 10% non-fat milk reconstituted from dairy milk powder in phosphate-buffered saline (PBS) containing 0.1% Tween®-20 (PBST). The membranes were incubated with primary antibodies at room temperature for 2 hours or at 4° C. for overnight. After the removal of unbound antibodies, membranes were incubated with horseradish peroxidase-conjugated secondary antibodies for one hour at room temperature and washed five times with PBST.

RXRα = test: Western blotting of RXRα protein in HEK293 cells and stable lines; type: cell-based, human; conditions: HEK293 with β-catenin and RXRα, FIG. 4B
Experimental: as §1, §2, §3, §4

hepatocarcinoma = conditions: experimental and clinical studies; cited from earlier work

Compound | antagonism of the effect of AGN 4204 on degradation of RARs and β-catenin (β-catenin; HEK293 co-expressing RXRα and RARs, with AGN 4204) | β-catenin stability / degradation, ligand applied alone (β-catenin) | β-catenin stability / degradation, ligand applied alone (β-catenin; listed as AGN194310) | RXRα stability, ligand applied alone (RXRα) | development of hepatocarcinoma (hepatocarcinoma) | β-catenin protein (β-catenin; HEK293 overexpressing RARα)
CCc1ccc(C2=CC(C)(C)Sc3ccc(C#Cc4ccc(C(=O)O)cc4)cc32)cc1 [compound 194310, reference compound] | not antagonized | no effect | have no effects | no effect |  | 
CC1=C(/C=C/C(C)=C\C=C\C(C)=C\C(=O)O)C(C)(C)CCC1 [9-cis retinoic acid] |  |  |  |  | suppress the development of hepatocarcinoma | 
C/C(=C\c1ccc(C(=O)O)cc1)c1ccc2c(c1)C(C)(C)CCC2(C)C [TTNPB, reference compound] |  | have no effects; also recorded: no effect |  | no effect |  | a slight decrease

Source: patent publication US20040009921A1, “Methods and compositions for the treatment of cancer” (Allergan, Inc., priority 2002, published 2004)
